{"source": "PubChem BioAssay AID1259407", "about": "(Chemical Carcinogenesis Research Information System (CCRIS), 2018)", "tested_on": "CCRIS mutagenicity, Ames/micronucleus/aberration tests", "experiment": "CCRIS mutagenicity studies", "note": "Calls of active or inactive are those of the source. No rule for the calls is given here.", "data": [{"smiles": "CCN(CC)N=O", "values": [{"measurement": "mutagenic call", "setting": "End Point: IN VITRO MICRONUCLEUS, Test System: AHH-1 CELLS, Metabolic Activation: NONE", "result": "active; positive"}, {"measurement": "mutagenic call", "setting": "End Point: IN VITRO MICRONUCLEUS, Test System: MCL-5 CELLS, Metabolic Activation: NONE", "result": "active; positive"}, {"measurement": "mutagenic call", "setting": "Test System: AMES SALMONELLA TYPHIMURIUM, Strain/Indicator: TA97, Metabolic Activation: NONE, Method: PREINCUBATION", "result": "inactive; negative"}, {"measurement": "mutagenic call", "setting": "Test System: AMES SALMONELLA TYPHIMURIUM, Strain/Indicator: TA97, Metabolic Activation: RAT LIVER S-9, AROCLOR, Method: PREINCUBATION", "result": "inactive; negative"}, {"measurement": "mutagenic call", "setting": "Test System: AMES SALMONELLA TYPHIMURIUM, Strain/Indicator: TA98, Metabolic Activation: HAMSTER, LIVER, S-9, AROCLOR 1254 (30%), Method: PREINCUBATION", "result": "active; positive"}, {"measurement": "mutagenic call", "setting": "Test System: AMES SALMONELLA TYPHIMURIUM, Strain/Indicator: TA98, Metabolic Activation: NONE, Method: PREINCUBATION", "result": "active; positive"}, {"measurement": "mutagenic call", "setting": "Test System: AMES SALMONELLA TYPHIMURIUM, Strain/Indicator: TA98, Metabolic Activation: RAT LIVER S-9, AROCLOR, Method: PREINCUBATION", "result": "active; positive"}, {"measurement": "mutagenic call", "setting": "Test System: AMES SALMONELLA TYPHIMURIUM, Strain/Indicator: TA98, Metabolic Activation: RAT, LIVER, S-9, AROCLOR 1254 (30%), Method: PREINCUBATION", "result": "inactive; negative"}, {"measurement": "mutagenic call", "setting": "Test System: AMES SALMONELLA TYPHIMURIUM, Strain/Indicator: TA98, Metabolic Activation: RAT, LIVER, S-9, AROCLOR 1254, Method: STANDARD PLATE", "result": "active; positive"}, {"measurement": "mutagenic call", "setting": "Test System: AMES SALMONELLA TYPHIMURIUM, Strain/Indicator: TA98, Metabolic Activation: RAT, LIVER, S-9, KC500 OR PHENOBARBITAL, Method: LIQUID SUSPENSION", "result": "active; positive"}, {"measurement": "mutagenic call", "setting": "Test System: AMES SALMONELLA TYPHIMURIUM, Strain/Indicator: TA98, Metabolic Activation: RAT, LIVER, S-9, PHENOBARBITAL, Method: PREINCUBATION", "result": "active; positive"}, {"measurement": "mutagenic call", "setting": "Test System: AMES SALMONELLA TYPHIMURIUM, Strain/Indicator: TA98NR, Metabolic Activation: NONE, Method: PREINCUBATION", "result": "inactive; negative"}, {"measurement": "mutagenic call", "setting": "Test System: AMES SALMONELLA TYPHIMURIUM, Strain/Indicator: TA98NR, Metabolic Activation: RAT LIVER S-9, AROCLOR, Method: PREINCUBATION", "result": "active; positive"}, {"measurement": "mutagenic call", "setting": "Test System: AMES SALMONELLA TYPHIMURIUM, Strain/Indicator: TA100, Metabolic Activation: HAMSTER, LIVER, S-9, AROCLOR 1254 (30%), Method: PREINCUBATION", "result": "active; positive"}, {"measurement": "mutagenic call", "setting": "Test System: AMES SALMONELLA TYPHIMURIUM, Strain/Indicator: TA100, Metabolic Activation: MOUSE, INTACT UROTHELIAL CELLS, Method: FLUCTUATION TEST", "result": "active; positive"}, {"measurement": "mutagenic call", "setting": "Test System: AMES SALMONELLA TYPHIMURIUM, Strain/Indicator: TA100, Metabolic Activation: MOUSE, KIDNEY, S-9, PHENETHYL ISOTHIOCYANATE, Method: PREINCUBATION", "result": "inactive; negative"}, {"measurement": "mutagenic call", "setting": "Test System: AMES SALMONELLA TYPHIMURIUM, Strain/Indicator: TA100, Metabolic Activation: MOUSE, KIDNEY, S-9, Method: PREINCUBATION", "result": "active; positive"}, {"measurement": "mutagenic call", "setting": "Test System: AMES SALMONELLA TYPHIMURIUM, Strain/Indicator: TA100, Metabolic Activation: MOUSE, LIVER, S-9, PHENETHYL ISOTHIOCYANATE, Method: PREINCUBATION", "result": "inactive; negative"}, {"measurement": "mutagenic call", "setting": "Test System: AMES SALMONELLA TYPHIMURIUM, Strain/Indicator: TA100, Metabolic Activation: MOUSE, LIVER, S-9, Method: PREINCUBATION", "result": "active; positive"}, {"measurement": "mutagenic call", "setting": "Test System: AMES SALMONELLA TYPHIMURIUM, Strain/Indicator: TA100, Metabolic Activation: MOUSE, LUNG, S-9, PHENETHYL ISOTHIOCYANATE, Method: PREINCUBATION", "result": "inactive; negative"}, {"measurement": "mutagenic call", "setting": "Test System: AMES SALMONELLA TYPHIMURIUM, Strain/Indicator: TA100, Metabolic Activation: MOUSE, LUNG, S-9, Method: PREINCUBATION", "result": "inactive; negative"}, {"measurement": "mutagenic call", "setting": "Test System: AMES SALMONELLA TYPHIMURIUM, Strain/Indicator: TA100, Metabolic Activation: NONE, Method: STANDARD PLATE", "result": "inactive; negative"}, {"measurement": "mutagenic call", "setting": "Test System: AMES SALMONELLA TYPHIMURIUM, Strain/Indicator: TA100, Metabolic Activation: RABBIT, LIVER, S-9, Method: STANDARD PLATE", "result": "inactive; negative"}, {"measurement": "mutagenic call", "setting": "Test System: AMES SALMONELLA TYPHIMURIUM, Strain/Indicator: TA100, Metabolic Activation: RABBIT, LUNG, S-9, Method: STANDARD PLATE", "result": "inactive; negative"}, {"measurement": "mutagenic call", "setting": "Test System: AMES SALMONELLA TYPHIMURIUM, Strain/Indicator: TA100, Metabolic Activation: RABBIT, NASAL, S-9, Method: STANDARD PLATE", "result": "inactive; negative"}, {"measurement": "mutagenic call", "setting": "Test System: AMES SALMONELLA TYPHIMURIUM, Strain/Indicator: TA100, Metabolic Activation: RAT LIVER S-9, AROCLOR, Method: PREINCUBATION", "result": "active; positive"}, {"measurement": "mutagenic call", "setting": "Test System: AMES SALMONELLA TYPHIMURIUM, Strain/Indicator: TA100, Metabolic Activation: RAT, INTACT UROTHELIAL CELLS, Method: FLUCTUATION TEST", "result": "active; positive"}, {"measurement": "mutagenic call", "setting": "Test System: AMES SALMONELLA TYPHIMURIUM, Strain/Indicator: TA100, Metabolic Activation: RAT, LIVER, S-9, AROCLOR 1254 (30%), Method: PREINCUBATION", "result": "inactive; negative"}, {"measurement": "mutagenic call", "setting": "Test System: AMES SALMONELLA TYPHIMURIUM, Strain/Indicator: TA100, Metabolic Activation: RAT, LIVER, S-9, AROCLOR 1254, Method: PREINCUBATION", "result": "active; positive"}, {"measurement": "mutagenic call", "setting": "Test System: AMES SALMONELLA TYPHIMURIUM, Strain/Indicator: TA100, Metabolic Activation: RAT, LIVER, S-9, KC500 OR PHENOBARBITAL, Method: LIQUID SUSPENSION", "result": "active; positive"}, {"measurement": "mutagenic call", "setting": "Test System: AMES SALMONELLA TYPHIMURIUM, Strain/Indicator: TA100, Metabolic Activation: RAT, LIVER, S-9, PHENOBARBITAL, Method: PREINCUBATION", "result": "active; positive"}, {"measurement": "mutagenic call", "setting": "Test System: AMES SALMONELLA TYPHIMURIUM, Strain/Indicator: TA100, Metabolic Activation: RAT, LUNG, S-9, Method: STANDARD PLATE", "result": "inactive; negative"}, {"measurement": "mutagenic call", "setting": "Test System: AMES SALMONELLA TYPHIMURIUM, Strain/Indicator: TA100, Metabolic Activation: RAT, NASAL, S-9, Method: STANDARD PLATE", "result": "inactive; negative"}, {"measurement": "mutagenic call", "setting": "Test System: AMES SALMONELLA TYPHIMURIUM, Strain/Indicator: TA100, Metabolic Activation: S-9, Method: PREINCUBATION", "result": "inactive; negative"}, {"measurement": "mutagenic call", "setting": "Test System: AMES SALMONELLA TYPHIMURIUM, Strain/Indicator: TA102, Metabolic Activation: NONE, Method: PREINCUBATION", "result": "inactive; negative"}, {"measurement": "mutagenic call", "setting": "Test System: AMES SALMONELLA TYPHIMURIUM, Strain/Indicator: TA102, Metabolic Activation: RAT LIVER S-9, AROCLOR, Method: PREINCUBATION", "result": "inactive; negative"}, {"measurement": "mutagenic call", "setting": "Test System: AMES SALMONELLA TYPHIMURIUM, Strain/Indicator: TA104, Metabolic Activation: RAT, LIVER, S-9, AROCLOR 1254, Method: PREINCUBATION", "result": "active; positive"}, {"measurement": "mutagenic call", "setting": "Test System: AMES SALMONELLA TYPHIMURIUM, Strain/Indicator: TA1530, Metabolic Activation: RAT, LIVER, S-9, PHENOBARBITAL, Method: PREINCUBATION", "result": "active; positive"}, {"measurement": "mutagenic call", "setting": "Test System: AMES SALMONELLA TYPHIMURIUM, Strain/Indicator: TA1530, Metabolic Activation: RAT, LIVER, S-9, Method: STANDARD PLATE", "result": "active; positive"}, {"measurement": "mutagenic call", "setting": "Test System: AMES SALMONELLA TYPHIMURIUM, Strain/Indicator: TA1535, Metabolic Activation: NONE, Method: PREINCUBATION", "result": "inactive; negative"}, {"measurement": "mutagenic call", "setting": "Test System: AMES SALMONELLA TYPHIMURIUM, Strain/Indicator: TA1535, Metabolic Activation: RAT, LIVER, HEPATOCYTES, Method: PREINCUBATION", "result": "active; positive"}, {"measurement": "mutagenic call", "setting": "Test System: AMES SALMONELLA TYPHIMURIUM, Strain/Indicator: TA1535, Metabolic Activation: RAT, LIVER, S-9, AROCLOR 1254, Method: PREINCUBATION", "result": "active; positive"}, {"measurement": "mutagenic call", "setting": "Test System: AMES SALMONELLA TYPHIMURIUM, Strain/Indicator: TA1535, Metabolic Activation: RAT, LIVER, S-9, AROCLOR, Method: PREINCUBATION", "result": "active; positive"}, {"measurement": "mutagenic call", "setting": "Test System: AMES SALMONELLA TYPHIMURIUM, Strain/Indicator: TA1535, Metabolic Activation: RAT, LIVER, S-9, SODIUM PHENOBARBITONE, Method: PREINCUBATION", "result": "active; positive"}, {"measurement": "mutagenic call", "setting": "Test System: AMES SALMONELLA TYPHIMURIUM, Strain/Indicator: TA1535, Metabolic Activation: RAT, LIVER, S-9, Method: PREINCUBATION", "result": "active; positive"}, {"measurement": "mutagenic call", "setting": "Test System: AMES SALMONELLA TYPHIMURIUM, Strain/Indicator: TA1535, Metabolic Activation: S-9, Method: PREINCUBATION", "result": "inactive; negative"}, {"measurement": "mutagenic call", "setting": "Test System: AMES SALMONELLA TYPHIMURIUM, Strain/Indicator: TA1535ER, Metabolic Activation: NONE, Method: STANDARD PLATE", "result": "inactive; negative"}, {"measurement": "mutagenic call", "setting": "Test System: AMES SALMONELLA TYPHIMURIUM, Strain/Indicator: TA1975, Metabolic Activation: RAT, LIVER, S-9, AROCLOR 1254, Method: PREINCUBATION", "result": "active; positive"}]}]}
